In patent US8063047B2, “Pyridazine compounds and methods” (Centre National de la Recherche Scientifique (CNRS), priority 2004, dated 2011):

What was measured:
[1] = system: liver, lungs, and kidney; assay: Graded dose, acute toxicity assay (histology of liver, lung, kidney); type: in vivo; conditions: mice, oral gavage once daily for 3 days, up to 50 mg/kg
Experimental: Vehicle (panels A,C,E) or MW01-2-151 WH (panels B,D,F) was orally administered (gavage) to mice daily for three days at 50 mg/kg (20-fold greater than a therapeutic dose, described in Materials and Methods).
Graded dose, acute toxicity assays Vehicle (30% DMSO) or MW01-2-151WH (3.1, 12.5 or 50 mg/kg) in 0.5% carboxymethylcellulose was administered by oral gavage once daily for 3 days. On the 4th day, mice were anesthetized with pentobarbital, intubated and the lungs were inflated with an air containing syringe. The mice were perfused through the right ventricle and the lungs, liver and kidneys were then harvested and fixed in 4% paraformaldehyde for histology. Paraffin embedded hematoxylin & eosin stained sections of each organ were prepared by standard techniques.

[2] = system: TNFα production by BV-2 mouse microglial cells stimulated with LPS; assay: LPS-induced TNFα production in BV-2 microglial cells; type: cell-based; conditions: BV-2 cells, LPS 100 ng/ml, 16 hrs, cell lysates, MSD assay
Experimental: (§1) BV-2 cells were treated with LPS (100 ng/ml) in the absence or presence of increasing concentrations of MW01-2-151WH or three structurally related analogs (MW01-3-202WH and MW01-3-173WH) for 16 hrs with levels of IL-1β and TNFα in cell lysates measured by the Meso-Scale Discovery electrochemiluminescent detection assay (See, e.g., Example 1, Materials and Methods). Data are the mean+/−SEM of triplicate determinations.
(§2) Biological investigations were done with compounds disclosed herein that were >95% homogenous as determined by HPLC/MS analysis. As part of a hierarchal, cell-based screening protocol, the compounds were screened for their ability to block IL-1β and TNFα production by BV-2 mouse microglial cells stimulated with LPS. The data for MWO1-2-1-151WH and the three structurally related analogs (MW01-3-202WH and MW01-3-173WH,) is shown (See, e.g., FIG. 2). Derivative groups that may be used to modify the compounds of the present invention can be found in U.S. Patent Application No. 20030176437 (herein incorporated by reference in its entirety for all purposes).
(§3) Cell Culture Assays. […] EL-1/3 and TNFa levels in cell lysates were determined by electro-chemiluminescent detection in a Meso-Scale Discovery (MSD) kit, as per the manufacturer's instructions.

[3] = system: IL-1β production by BV-2 mouse microglial cells stimulated with LPS; assay: LPS-induced IL-1β production in BV-2 microglial cells; type: cell-based; conditions: BV-2 cells, LPS 100 ng/ml, 16 hrs, cell lysates, MSD assay
Experimental: as §1, §2, §3

[4] = system: Accumulation of the NO metabolite, nitrite, BV-2 microglial cells; assay: Nitrite (NO metabolite) accumulation in BV-2 microglial cells; type: cell-based, mouse; conditions: BV-2 cells, concentrations up to 50 μM
Experimental: FIG. 4 A-C are graphs of the cell-based activity of MW01-2-151WH in BV-2 microglial cells. MW01-2-151WH is a concentration-dependent and selective inhibitor of proinflammatory cytokine production by activated glia. […] (C) Accumulation of the NO metabolite, nitrite, was not inhibited at concentrations up to 50 μM.

[5] = system: Aβ-induced neuroinflammation and synaptic damage; assay: Aβ1-42 ICV infusion mouse model, hippocampal endpoints; type: in vivo, C57B1/6 mice; conditions: mice infused ICV with Aβ1-42; […] per day i.p. for 14 days
Experimental: FIG. 3A-F are graphs of MW01-2-151WH suppression of Aβ-induced neuroinflammation and synaptic damage. Hippocampal sections or extracts from vehicle-infused mice (control), Aβ-infused mice injected with solvent, and Aβ-infused mice injected with MW01-2-151 WH were evaluated for neuroinflammation by measurement of the levels of the pro-inflammatory cytokines IL-1β (A), TNFα(B), and S100B (C), and the number of GFAP-positive astrocytes, (D) and F4/80-positive microglia, (E), and evaluated for synaptic damage by analysis of the levels of the postsynaptic density protein 95 (PSD-95) (F). Data are from one of two independent experiments, and are the mean±SEM for 4-5 mice per experimental group.
In vivo Assays. Aβ-42 infusions and treatment of C57B1/6 mice with MW01-2-151WH were performed as previously described. Briefly, oligomeric […] was infused ICV for 28 days with a micro-osmotic pump. At post-operative day 21 and continuing for 14 days thereafter, mice were injected intraperitoneally once daily with either MW01-2-151WH (2.5 mg/kg per day) or solvent control (10% DMSO in saline). At post-operative day 60, mice were perfused and sacrificed, and hippocampal endpoints measured as previously described. […]

Row | Compound | tissue toxicity (histology of liver, lung, kidney), acute [1] | tissue toxicity (histology of liver, lung, kidney), acute ([1]; listed as MW01-2-151 WH) | inhibition of LPS-induced TNFα production [2] | inhibition of LPS-induced TNFα production ([2]; listed as MW01-2-151 WH) | inhibition of LPS-induced IL-1β production [3] | inhibition of LPS-induced IL-1β production ([3]; listed as MW01-2-151 WH) | Accumulation of the NO metabolite, nitrite [4] | number of F4/80 positive microglia [5]
1 | 5,6-dihydro-3-(4-(pyrimidin-2-yl)piperazin-1-yl)benzo[h]cinnoline [MW01-2-151WH] | No tissue toxicity was observed | no histological evidence of toxicity | Concentration-dependent inhibition | suppressed | Concentration-dependent inhibition | suppressed | not inhibited | suppressed
2 | c1ccc(N2CCN(c3cc4c(nn3)-c3ccccc3CC4)CC2)nc1 [MW01-3-202WH, 5,6-dihydro-3-(4-(pyridm-2-yl)piperazin-1-yl)benzo[h]cinnoline] |  |  | somewhat less suppressive activity |  | somewhat less suppressive activity |  |  | 
3 | 5,6-dihydro-3-(4-phenylpiperazin-1-yl)benzo[h]cinnoline [MW01-3-173WH] |  |  | somewhat less suppressive activity |  | somewhat less suppressive activity |  |  | 
